According to patent US6166085A, “Method of producing analgesia” (priority 1996, dated 2000):

How the values were obtained:
[1] = tested on: allodynia; experiment: Tactile allodynia (paw withdrawal threshold, % MPE) in L5/L6 spinal nerve ligated rats, Example 3; format: in vivo, Harlan Sprague-Dawley rats
Procedure: Male Harlan Sprague-Dawley rats were used (100-200 g). Rats were housed 2-3 to a cage with corn cob bedding and Purina rat chow and water ad libitum, in a standard facility with a 12 h/12 h day/night cycle. After surgical procedures involving chronic indwelling catheter insertion, animals were housed singly to prevent catheter damage.
Rats were allowed to recover 5-7 days before further testing or surgeries.
The catheters were 9 cm in intrathecal length and terminated near the lumbar enlargement. The rostral 3 cm of catheter was tunneled under the skin to externalize between the ears. Rats with neurologic deficits were discarded.
For intravascular access, external jugular catheters were fashioned from PE-50 tubing and inserted into an external jugular vein under halothane/oxygen anesthesia. Arterial catheters were also fashioned from PE-50 with a small bouton 1 cm from the intravascular end for suture securing; they were inserted into a carotid artery, taking care to spare the surrounding nerves. All catheters were flushed with heparinized saline (10 U/ml) and tunneled subcutaneously to emerge at the posterior base of the neck, and capped when not in use.
Monoethylglycinexylidide (MEGX) and 3-hydroxy monoethyl-glycinexylidide (3-OH MEGX) were dissolved in physiologic saline; 3-hydroxylidocaine (3-OH L) was dissolved in DMSO for intravenous administration.
Intravenous drugs were delivered to awake, unrestrained rats by slow infusion using a syringe pump (Harvard apparatus 22). Intrathecal drugs were delivered to awake, briefly restrained rats in a volume of 10 μl, followed by 10 μl of vehicle flush, using a calibrated tubing extension with a 30-gauge adapter fitting the implanted intrathecal catheter, attached to a geared Hamilton 100 μl glass syringe. IT drug delivery was monitored by observing the advancement of a small air bubble down the tubing.
Rats were placed in a plastic cage with an open wire mesh bottom and allowed to accommodate for approximately fifteen minutes. […] In brief, von Frey hairs were sequentially applied using an up-and-down paradigm to the left mid-plantar hindpaw with sufficient force to cause slight filament buckling. Positive responses were noted if the paw was sharply withdrawn. […] Otherwise, PWT were calculated by noting the stimulus level at which the first change in behavior occurred, collecting four additional responses to the continued up-and-down oscillation of stimulus presentation around the response threshold, and interpolating the 50% response threshold. For some comparisons, raw thresholds were converted to percent of maximum possible effect (% MPE), designating pre-treatment PWT (baselines) as 0% effect, and assigning a cutoff value of 100% effect to thresholds ≥15 g: therefore, % MPE values near 100 indicate normal mechanical thresholds (i.e., at or near 15 g), whereas values near 0 indicate allodynia. The following equation was used to compute % MPE:
% MPE=new threshold(g)-baseline threshold(g)×100/ 15 grams--baseline
Plasma drug levels and PWT were correlated using linear regression. Serially measured PWT and % MPE were compared using repeated measures ANOVA with post-hoc testing.

[2] = tested on: formalin-induced nociceptive responses; experiment: Rat formalin test (paw flinching), intrathecal drug; format: in vivo, Sprague-Dawley rats
Description: One such model, for response to an acute stimulus, is the rat formalin test. This test reflects several levels of processing of nociceptive information in the spinal cord (see Wheeler-Aceto, et al. 1990; Wheeler-Aceto, et al., 1991). […] This second phase is thought to represent a state of facilitated processing evoked by the afferent input present during phase 1 and to involve release of at least two substances, glutamate and a, tachykinin, based on pharmacological evidence (Yamamoto and Yaksh, 1991, 1992).
In the rat formalin test, a standard dose of formalin is injected into the rat paw, and flexions of the paw are quantitated over the following 90 minute period (Example 1). A biphasic response pattern is typically observed, with numerous responses observed during the period 5 min. after injection (Phase 1) and a second phase (Phase 2) which occurs during the period about 10-60 minutes following injection. The mean number of flinches per minute is recorded as a function of time.
Quantitation of responses during each phase is made by calculation of area under the curve of flinches/min., as shown in FIGS. 2B-2C.
FIGS. 2, 3 and 5 show results of experiments in which varying doses of 3-hydroxy MEGX designated 3-hydroxy MEGX, were tested for effects on the formalin response in rats. A 5% formalin solution was injected subcutaneously into the hindpaw of Sprague-Dawley rats. Ten minutes prior to formalin injection, 3-hydroxy MEGX was administered by bolus injection through an indwelling spinal (intrathecal) catheter terminating at the lumbar enlargement. For the results shown in FIGS. 2A-2C, dosing solutions were acidified to pH 6.58 with HCl. Injection volume was 20 μl.
In the standard rat formalin test, as described above, the test substance is administered prior to formalin injection. […]
Rats (male Sprague-Dawley, 275-300 g, Harlan Industries, Indianapolis, Ind.) were implanted with lumbar intrathecal catheters under halothane anesthesia (Yaksh and Rudy, 1976). Catheters (Polyethlyene PE-10) extended from the cisterna to the rostral edge of the lumbar enlargement. Three to five days after implant, animals without motor dysfunction were tested. Drugs tested in this assay were dissolved in sterile saline (0.9% NaCl) and injected in a volume of 10 μl followed by 10 μl sterile saline to clear the catheter.
Animals were examined for the effects of drugs given in the formalin test, in which 50 μl of 5% formalin was injected on the plantar surface of the paw of a lightly anesthetized (halothane, 3%) animal. The number of spontaneous flinchings/shakings of the injected paw were counted at intervals after the injection of the formalin.
The area under the curve of flinches/min was calculated for phase 1 (time=0-10 min) and phase 2 (10-60 min). […]

[3] = acute Phase 1, intrathecal, 10 min before 5% formalin, pH 6.58
[4] = lowest dose, 16.5 μg intrathecal, pH 6.58
[5] = persistent Phase 2, intrathecal, 10 min before 5% formalin, pH 6.58

| Compound | suppression of allodynia after IT administration (summary) ([1]; IT) | MPE, IT 67 μg ([1]; IT, dose printed 67 μ, P<0.0001) [%] | effect on allodynia, IV (in words) ([1]; IV infusion, 20 mg/kg) | activity as metabolite with regard to allodynia suppression ([1]; rat, in vivo) | Phase 1 ED50 (approximately 50% inhibition) [2, 3] [µg] | Phase 1 ED50 (approximately 50% inhibition), molar [2, 3] [nmol] | duration of inhibition, higher doses ([2]; higher doses, intrathecal, pH 6.58, "up to 90 minutes or longer") [min] | blockade of persistent (Phase 2) nociceptive responses ([2]; intrathecal after formalin injection, pH 6.58) | blockade of formalin-induced acute and persistent nociceptive responses ([2]; intrathecal, dosing solutions pH 9.2, n=4 animals/group) | duration of inhibition [2, 4] | inhibition of Phase 1 and Phase 2 responses [2, 4] | Phase 2 ED50 (approximately 50% inhibition) [2, 5] [µg] | Phase 2 ED50 (approximately 50% inhibition), molar [2, 5] [nmol] | effect on allodynia / PWT, IT 500 μg (in words) ([1]; IT, 500 μg, after recovery of motor function) | effect on formalin-induced nociceptive responses ([2]; intrathecal, pH 6.58, injection volume 20 μl) |
| --- | --- | --- | --- | --- | --- | --- | --- | --- | --- | --- | --- | --- | --- | --- | --- |
| CCNCC(=O)Nc1c(C)ccc(O)c1C [3-hydroxy MEGX, 2-(ethylamino)-N-(3-hydroxy-2,6-dimethylphenyl) acetamide] | suppressed allodynia after IT administration | 63±17 | did not show a significant effect in suppressing allodynia | active metabolite with regard to allodynia suppression | 9.3 | 42 | ≥ 90 | blocks persistent (Phase 2) nociceptive responses | dose-dependent blockade | up to one hour | showed inhibition of both the Phase 1 and Phase 2 responses | 29.9 | 135 |  |  |
| CCN(CC)CC(=O)Nc1c(C)cccc1C [lidocaine] |  |  |  |  |  |  |  |  |  |  |  |  |  | no effect on allodynia was seen | no effect on the formalin-induced nociceptive responses |
